One assay has as its system SH-SY5Y cells. Particulars: co-treatment with 25-OHC, cells lysed 24 h later, blotted for APP.
The subject of assay [1] is APP over-expression SH-SY5Y cell line. The assay is described as follows: Western blot of APP in cell lysate and in exosomes purified from the medium after 25-OHC treatment. The following applies: different dosage of 25-OHC. It is filed as cell-based, human. The method, then: (§1) FIGS. 8A-8C show graphs and images depicting that treatment with 25-OHC decreased exosomal APP but increases intracellular APP. SH-SY5Y cells with APP over-expression were treated with different dosage of 25-OHC.
(§2) SH-SY5Y cells over-express human APP were cultured in DMEM with 10% FBS. One day before exosome preparation, medium was changed to blank DMEM to avoid the contamination of serum exosomes. 24 hour after medium change, the mediums were collected, and spin at 200 g for 5 min to pellet down floating cells. The cell free medium was further centrifuged at 100,000 g for 1 h at 4° C., and the pellet containing exosomes was dissolved in RIPA buffer
We used APP over-expression SH-SY5Y cell line to further check if the difference in exosomal APP is due to 25-OHC. Cells were treated with different dosage of 25-OHC and both cell lysate and exosomes from medium were collected. […] In contract, as the dosage of 25-OHC increased, more APP was found in the cell lysate fraction.
(In general: A western blot detects proteins with antibodies after separation by electrophoresis.)

The test system of a further assay is APP/PS1 mice. The following applies: 2-month-old, injected every other day for 1 month, vs saline.
The test system of assay [2] is APP over-expression SH-SY5Y cell line. The assay is described as follows: ELISA measurement of Aβ42 in exosomes collected from cell culture medium. The assay is classed as cell-based, human. The following applies: different concentration of 25-OHC; three independent experiments. The method, then: ELISA measurement of Aβ42 in exosomes collected from cell culture medium with different concentration of 25-OHC treatment. Data are representative of three independent experiments. *p<0.05.
as §2
Quantification of Aβ42 was carried out with ELISA kit (Millipore) according to the manufactures' instructions.
Data are representative of three independent experiments.
(ELISA stands for enzyme-linked immunosorbent assay.)

For the next assay, the system named is APP trafficking in cells. The assay is described as follows: Trafficking of antibody-labelled surface APP (fixed time points, time-lapse). The assay is classed as cell-based. The following applies: 25-OHC treated vs untreated cells; in untreated cells signal disappeared within 6 hours. The method, then: FIGS. 10A-10C show images depicting increased retention time of APP inside cells after treatment with 25-OHC. […] Cells were fixed at different time points to check the distribution of APP at specific time.
We went on to check the trafficking of APP protein. Surface APP were labeled by antibody, and cells were put back to incubator and fixed at different time point for staining.

Assay [3] concerns APP over-expression SH-SY5Y cell line. The assay is described as follows: FACS analysis of surface APP. The assay is classed as cell-based, human. The following applies: 25-OHC treated vs control cells. The method, then: as §1
More amounts of APP were detected on the cell surface of cells overexpressing APP after 25-OHC treatment.
A general note: A flow cytometer gives signals particle by particle.

Method for APP/PS1 mice: Mice at 2-month-old were injected with 25-OHC or saline as control every other day for duration of 1 month. Brains from these mice were sectioned and stained for amyloid-beta.
All experiments were performed with mice 3-4 months old and approved by the Institutional Animal Care and Use Committee of NUS.
Tissues were fixed in 4% paraformaldehyde, dehydrated, penetrated and paraffin embedded. […] For immunofluorescence (IF) or immunohistochemistry (IHC), sections were rehydrated and stained with primary antibody against Aβ (Cell signaling), followed by incubation with fluorescence-conjugated secondary antibodies (Invitrogen).

For `CC(C)(C)C(=O)OCC(=O)[C@@]1(O)CC[C@H]2[C@@H]3CCC4=CC(=O)C=C[C@]4(C)[C@H]3[C@@H](O)C[C@@]21C` [prednisolone trimethylacetate], the “effect on 25-OHC induced increase of cellular APP” value in the assay on SH-SY5Y cells is reported as “had no effect”.

In the case of `C[C@H](CCCC(C)(C)O)[C@H]1CC[C@H]2[C@@H]3CC=C4C[C@@H](O)CC[C@]4(C)[C@H]3CC[C@]12C` [25-OHC, 25-hydroxylated cholesterol], the “cellular APP (cell lysate, Western blot)” value in assay [1] (APP over-expression SH-SY5Y cells) is reported as “dosage dependent effect to increase cellular APP”. For the same compound, the “exosomal APP (Western blot)” value in assay [1] (exosomes from medium) is given as “decreasing exosomal APP”. Besides, the “amount of Aβ in brain (plaque staining)” value in the assay with APP/PS1 mice was “significant high amount of Aβ”. Further, the “Aβ42 in exosomes (ELISA)” value in assay [2] is “increased Aβ42 in exosomes”. Besides, the “trafficking / retention of APP in cells” value in the assay with APP trafficking in cells is reported as “the trafficking of APP was slower”. The “amount of APP on cell surface (FACS)” value in assay [3] is listed as “increased the amount of APP on cell surface”.

The record behind these values is patent US11873321B2, “Compositions and methods for treating alzheimer's disease” (Generos Biopharma Ltd., priority 2017, dated 2024).
